Experimental data reported in ChEMBL document CHEMBL1131969, “Quinoline-2,4-dicarboxylic acids: synthesis and evaluation as inhibitors of the glutamate vesicular transport system” (Bioorg Med Chem Lett, 1999).

Experiments:
[1] = Compound was evaluated for the kinetic parameter Vmax (maximum velocity); type: ADME
[2] = Compound was evaluated for the kinetic parameter (Km); type: ADME

N[C@@H](CCC(=O)O)C(=O)O [GLUTAMIC ACID]
Vmax [1]: 18.3 pM/min/mg
Km [2]: 1.65 µM
